Converted amounts (≈) assume the structure as drawn. Like-named read-outs stand apart in the source and are kept apart here. Each block holds one molecule with its values, some of them ahead of it. *1 amine or outer side, *2 acyl side, *3 side chain or, on linkers, in order; H or OH if unused. Where a SMILES comes first, the peptide text is derived from it. Bridges are numbered along the chain shown (N, C = ends). [ ]: non-standard residue; d: D form. ξ: configuration not given here. Phe(βR-NH) = O=C([C@@H](N[*:1])[C@H](N[*:3])c1ccccc1)[*:2]; Leu(3R-OH) = CC(C)[C@@H](O)[C@H](N)C(=O)O; X1 = NC(=O)[C@@H](O)C(N[*:1])C(=O)[*:2]; d(tBuAla) = CC(C)(C)C[C@@H](N)C(=O)O; tBuAla = CC(C)(C)C[C@H](N)C(=O)O; aThr = C[C@H](O)[C@H](N)C(=O)O; ξA = CC(N)C(=O)O
What was measured:
[1] = amide bond, 28-membered ring
[2] = system: Staphylococcus aureus 133; format: cell-based; settings: 133
Protocol: (§1) Determination of the Minimum Inhibitory Concentration (MIC):
(§2) The MIC is determined in the liquid dilution test in accordance with the NCCLS guidelines. Overnight cultures of Staphylococcus aureus 133, Enterococcus faecalis 27159, E. faecium 4147 and Streptococcus pneumoniae G9a are incubated with the described test substances in a 1:2 dilution series. The MIC determination is carried out with a cell count of 10^5 microbes per ml in Isosensitest medium (Difco, Irvine/USA), with the exception of S. pneumoniae which is tested in BHI broth (Difco, Irvine/USA) with 10% bovine serum with a cell count of 10^6 microbes per ml. The cultures are incubated at 37° C. for 18-24 hours, S. pneumoniae in the presence of 10% CO2.
(§3) The MIC is defined as the lowest concentration of each substance at which no visible bacterial growth occurs any longer. The MIC values are reported in μg/ml.

[3] = system: Enterococcus faecalis 27159; format: cell-based; settings: 27159
Protocol: as §1, §2, §3

[4] = system: Streptococcus pneumoniae G9a; format: cell-based; settings: G9a
Protocol: as §1, §2, §3

[5] = amide bond; 28-membered ring

Molecule: CC[C@H](C)[C@@H]1NC(=O)[C@@H](CCCN(C(=N)NC(=O)OCc2ccccc2)C(=O)OCc2ccccc2)NC(=O)[C@H](CC(C)C)NC(=O)[C@H]([C@H](O)C(C)C)NC(=O)[C@@H](NC(=O)[C@H](CC(C)(C)C)NC(=O)[C@@H](CC(C)(C)C)NC(=O)OCc2ccccc2)[C@@H](c2ccccc2)NC(=O)[C@H](CO)NC(=O)[C@H](CC(N)=O)NC(=O)CNC(=O)[C@H]([C@H](C)O)NC1=O
ring closure, yield after HPLC ([1]; from Z-dAla(3-tBu)-Ala(3-tBu)-(3R)3-amino-Phe(free 3-NH2)-(3R)3-OH-Leu-Leu-dArg(Z)2-Ile-aThr-Gly-Asn-Ser-OH, HATU/NMM, DMF, 1.1 mM, 25.0 °C): 90.1%

Molecule: CC[C@H](C)[C@@H]1NC(=O)[C@@H](CCCNC(=N)N)NC(=O)[C@H](CC(C)C)NC(=O)[C@H]([C@H](O)C(C)C)NC(=O)[C@@H](NC(=O)OCc2ccccc2)[C@@H](c2ccc(N(C)C)cc2)NC(=O)[C@H](CO)NC(=O)[C@H]([C@H](O)C(N)=O)NC(=O)CNC(=O)[C@H]([C@H](C)O)NC1=O
ring closure, yield after HPLC ([1]; from H-[N3-amine free, N2-Cbz-(3R)-3-amino-Phe(4-NMe2)]-[(3R)-3-OH-Leu]-Leu-dArg-Ile-aThr-Gly-[(3S)-3-OH-Asn]-Ser-OH, HATU/NMM, DMF, 9.3 mM): 52%

Molecule: CC[C@H](C)[C@@H]1NC(=O)[C@@H](CCCNC(=N)N)NC(=O)[C@H](CC(C)C)NC(=O)[C@H]([C@H](O)C(C)C)NC(=O)[C@@H](NC(=O)OCc2ccccc2)[C@@H](c2ccccc2)NC(=O)[C@H](CO)NC(=O)[C@H](CO)NC(=O)CNC(=O)[C@H]([C@H](C)O)NC1=O
ring closure, yield after HPLC ([1]; from Z-Phe((3R)-3-NH2)-Leu((3R)-3-OH)-Leu-dArg-Ile-aThr-Gly-Ser-Ser-OH, HATU/NMM, DMF, 19.4 mM, 0.0 °C): 43%

Molecule: CC[C@H](C)[C@@H]1NC(=O)[C@@H](CCCNC(=N)N)NC(=O)[C@H](CC(C)C)NC(=O)[C@H]([C@H](O)C(C)C)NC(=O)[C@@H](NC(=O)OCc2ccccc2)[C@@H](c2ccccc2)NC(=O)[C@H](CO)NC(=O)[C@H](Cc2ccccc2)NC(=O)CNC(=O)[C@H]([C@H](C)O)NC1=O
ring closure, yield after HPLC ([1]; from Z-Phe((3R)-3-NH2)-Leu((3R)-3-OH)-Leu-dArg-Ile-aThr-Gly-Phe-Ser-OH?, HATU/NMM, DMF, 0.0 °C): 96%

Molecule: CC[C@H](C)[C@@H]1NC(=O)[C@@H](CCCNC(=N)N)NC(=O)[C@H](CC(C)C)NC(=O)[C@H]([C@H](O)C(C)C)NC(=O)[C@@H](NC(=O)OCc2ccccc2)[C@@H](c2ccccc2)NC(=O)[C@H](CO)NC(=O)[C@H](Cc2cccnc2)NC(=O)CNC(=O)[C@H]([C@H](C)O)NC1=O
ring closure, yield after HPLC ([1]; from Z-Phe((3R)-3-NH2)-Leu((3R)-3-OH)-Leu-dArg-Ile-aThr-Gly-Ala(3-pyridyl)-Ser-OH, HATU/NMM, DMF, 0.0 °C): 51%

Molecule: CC[C@H](C)[C@@H]1NC(=O)[C@@H](CCCNC(=N)N)NC(=O)[C@H](CC(C)C)NC(=O)[C@H]([C@H](O)C(C)C)NC(=O)[C@@H](NC(=O)OCc2ccccc2)[C@@H](c2ccccc2)NC(=O)[C@H](CO)NC(=O)[C@H]([C@@H](C)O)NC(=O)CNC(=O)[C@H]([C@H](C)O)NC1=O
ring closure, yield after HPLC ([1]; from Z-Phe((3R)-3-NH2)-Leu((3R)-3-OH)-Leu-dArg-Ile-aThr-Gly-Thr-Ser-OH?, HATU/NMM, DMF, 0.0 °C): 65%

Molecule: CC[C@H](C)[C@@H]1NC(=O)[C@@H](CCCNC(=N)N)NC(=O)[C@H](CC(C)C)NC(=O)[C@H]([C@H](O)C(C)C)NC(=O)[C@@H](NC(=O)OCc2ccccc2)[C@@H](c2ccccc2)NC(=O)[C@H](CO)NC(=O)[C@H]([C@H](O)C(N)=O)NC(=O)CNC(=O)[C@H]([C@H](C)O)NC1=O
ring closure, yield after HPLC ([1]; from Z-(3R)-3-amino-Phe-(3R)-3-hydroxy-Leu-Leu-dArg-Ile-alloThr-Gly-(3S)-3-hydroxy-Asn-Ser-OH, HATU/NMM, DMF, 1.27 mM, 0.0 °C): 78.3%

Molecule: CC[C@H](C)[C@@H]1NC(=O)[C@@H](CCCNC(=N)N)NC(=O)[C@H](CC(C)C)NC(=O)[C@H]([C@H](O)C(C)C)NC(=O)[C@@H](NC(=O)[C@H](CC(C)(C)C)NC(=O)[C@@H](CC(C)(C)C)NC(=O)OCc2ccccc2)[C@@H](c2ccccc2)NC(=O)[C@H](CO)NC(=O)[C@H](CC(N)=O)NC(=O)CNC(=O)[C@H]([C@H](C)O)NC1=O
ring closure, yield after HPLC ([1]; from Z-dAla(3-tBu)-Ala(3-tBu)-(3R)3-amino-Phe(free 3-NH2)-(3R)3-OH-Leu-Leu-dArg-Ile-aThr-Gly-Asn-Ser-OH, HATU/NMM, DMF, 1.14 mM, 4.0 °C): 80%

Molecule: CC[C@H](C)[C@@H]1NC(=O)[C@@H](CCCNC(=N)N)NC(=O)[C@H](CC(C)C)NC(=O)[C@H]([C@H](O)C(C)C)NC(=O)[C@@H](NC(=O)[C@H](CC(C)C)NC(=O)[C@@H](CC(C)C)NC(=O)OCc2ccccc2)[C@@H](c2ccccc2)NC(=O)[C@H](CO)NC(=O)[C@H](CC(N)=O)NC(=O)CNC(=O)[C@H]([C@@H](C)O)NC1=O
ring closure, yield after HPLC ([1]; from Z-dLeu-Leu-(3R)3-amino-Phe(free 3-NH2)-(3R)3-OH-Leu-Leu-dArg-Ile-Thr-Gly-Asn-Ser-OH, HATU/NMM, DMF, 25.0 °C): 88.3%

Molecule: CC[C@H](C)[C@@H]1NC(=O)[C@@H](CCCNC(=O)OCc2ccccc2)NC(=O)[C@H](CC(C)C)NC(=O)[C@H]([C@H](O)C(C)C)NC(=O)[C@@H](NC(=O)[C@H](CC(C)(C)C)NC(=O)[C@@H](CC(C)(C)C)NC(=O)OCc2ccccc2)[C@@H](c2ccccc2)NC(=O)[C@H](CO)NC(=O)[C@H](CC(N)=O)NC(=O)CNC(=O)[C@H]([C@H](C)O)NC1=O
ring closure, yield after HPLC ([1]; from Z-dAla(3-tBu)-Ala(3-tBu)-(3R)3-amino-Phe(free 3-NH2)-(3R)3-OH-Leu-Leu-dOrn(Z)-Ile-aThr-Gly-Asn-Ser-OH, HATU/NMM, DMF, 4.0 °C): 91.3%

MIC S. aureus 133 [2]: 0.25 µg/mL (≈ 0.201 µM)
MIC E. faecalis ICB 27159 [3]: 0.5 µg/mL (≈ 0.402 µM)
MIC S. pneumoniae G9a [4]: 0.5 µg/mL (≈ 0.402 µM)
Molecule: CC[C@H](C)[C@@H]1NC(=O)[C@@H](CCCNC(=N)N)NC(=O)[C@H](CC(C)C)NC(=O)[C@H]([C@H](O)C(C)C)NC(=O)[C@@H](NC(=O)[C@H](CC(C)(C)C)NC(=O)[C@H](N)CC(C)(C)C)[C@@H](c2ccccc2)NC(=O)[C@H](CO)NC(=O)C(C)NC(=O)CNC(=O)[C@H]([C@H](C)O)NC1=O (stereo partly drawn) [Example 13, [3-tert-Butyl-D-alanyl]-[3-tert-butyl-L-alanyl]-[(3R)-3-amino-L-phenylalanyl]-[(3R)-3-hydroxy-L-leucyl]-L-leucyl-D-arginyl-L-isoleucyl-L-allothreonyl-glycyl-L-alanyl-L-serine C^1.11-N^3.3-lactam bistrifluoroacetate] (H-[d(tBuAla)][tBuAla][Phe(βR-NH)][Leu(3R-OH)]L[dR]I[aThr]G[ξA]S; lactam 3-C)

MIC S. aureus 133 [2]: 0.25 µg/mL (≈ 0.194 µM)
MIC E. faecalis ICB 27159 [3]: 0.5 µg/mL (≈ 0.388 µM)
MIC S. pneumoniae G9a [4]: 0.125 µg/mL (≈ 0.0969 µM)
Molecule: CC[C@H](C)[C@@H]1NC(=O)[C@@H](CCCNC(=N)N)NC(=O)[C@H](CC(C)C)NC(=O)[C@H]([C@H](O)C(C)C)NC(=O)[C@@H](NC(=O)[C@H](CC(C)(C)C)NC(=O)[C@H](N)CC(C)(C)C)[C@@H](c2ccccc2)NC(=O)[C@H](CO)NC(=O)C([C@H](O)C(N)=O)NC(=O)CNC(=O)[C@H](CO)NC1=O (stereo partly drawn) [Example 14, [3-tert-Butyl-D-alanyl]-[3-tert-butyl-L-alanyl]-[(3R)-3-amino-L-phenylalanyl]-[(3R)-3-hydroxy-L-leucyl]-L-leucyl-D-arginyl-L-isoleucyl-L-seryl-glycyl-[(3S)-3-hydroxy-L-asparaginyl]-L-serine C^1.11-N^3.3-lactam bistrifluoroacetate] (H-[d(tBuAla)][tBuAla][Phe(βR-NH)][Leu(3R-OH)]L[dR]ISG[X1]S; lactam 3-C)

Molecule: N^2.1-(Benzyloxycarbonyl)-[(3R)-3-amino-L-alanyl)]-[(3R)-3-hydroxy-L-leucyl]-L-leucyl-D-arginyl-L-isoleucyl-L-allothreonyl-glycyl-[(3S)-3-hydroxy-L-asparaginyl]-L-serine C^1.9-N^3.1-lactam hydrochloride
ring closure, yield after HPLC ([1]; Et3N (Pfp ester), CHCl3, 0.11 mM, 3 steps): 15.9%

Molecule: {(3R)-N^2-[(9H-Fluoren-9-ylmethoxy)carbonyl]-3-amino-L-phenylalanyl}-[(3R)-3-hydroxy-L-leucyl]-L-leucyl-D-arginyl-L-isoleucyl-L-allothreonyl-glycyl-[(2S)-2-amino-4-benzyloxycarbonylaminobutyryl]-L-serine C^1.9-N^3.1-lactam trifluoroacetate
ring closure, isolated yield [5]: 66%

Molecule: {(3R)-N^2-[(9H-Fluoren-9-ylmethoxy)carbonyl]-3-amino-L-phenylalanyl}-[(3R)-3-hydroxy-L-leucyl]-L-leucyl-[(2R)-2-amino-4-benzyloxycarbonylaminobutyryl]-L-isoleucyl-L-allothreonyl-glycyl-L-seryl-L-serine C^1.9-N^3.1-lactam trifluoroacetate
ring closure, isolated yield [5]: 85%

— US8076285B2, “Lysobactin amides” (Aicuris GmbH & Co. KG, priority 2006, dated 2011)
